Reference: the NIST ThermoML archive (doi:10.1016/j.jct.2013.01.013)

What was measured:
[1] = 101 kPa, Liquid; for viscosity: Capillary tube (Ostwald / Ubbelohde) method; for speed of sound: Linear variable-path acoustic interferometer; for mass density: Pycnometric method
[2] = xn = mol fraction of the nth substance listed; details: 101 kPa, Liquid, x2 = 0; for viscosity: Capillary tube (Ostwald / Ubbelohde) method; for speed of sound: Linear variable-path acoustic interferometer; for mass density: Pycnometric method

CC(=O)N(C)C [N,N-dimethylethanamide]
[1]
Details	mass density [kg/m3]	speed of sound [m/s]	viscosity [mPa·s]
288.15 K	945.5	1500.2	1.15
293.15 K	941	1482.6	1.038
298.15 K	936.5	1462.1	0.9443
303.15 K	932	1441.8	0.8792
308.15 K	927.5	1420.7	0.8179
313.15 K	923	1402.6	0.7696
318.15 K	918.5	1383.5	0.7346

CN(C)C=O [dimethylformamide] + C=C(C)C(=O)OC
[2]
Details	mass density [kg/m3]	speed of sound [m/s]	viscosity [mPa·s]
288.15 K	953.61	1503.3	0.9452
293.15 K	949.1	1485.8	0.8685
298.15 K	944.6	1469.5	0.8123
303.15 K	940.1	1448.8	0.7647
308.15 K	935.6	1429.1	0.7189
313.15 K	931.1	1411.5	0.6851
318.15 K	926.6	1392.6	0.6642

CN(C)C=O [dimethylformamide]
[1]
Details	mass density [kg/m3]	speed of sound [m/s]	viscosity [mPa·s]
288.15 K	953.61	1503.3	0.9452
293.15 K	949.1	1485.8	0.8685
298.15 K	944.6	1469.5	0.8123
303.15 K	940.1	1448.8	0.7647
308.15 K	935.6	1429.1	0.7189
313.15 K	931.1	1411.5	0.6851
318.15 K	926.6	1392.6	0.6642

CC(=O)N(C)C [N,N-dimethylethanamide] + C=C(C)C(=O)OC
[2]
Details	mass density [kg/m3]	speed of sound [m/s]	viscosity [mPa·s]
288.15 K	945.5	1500.2	1.15
293.15 K	941	1482.6	1.038
298.15 K	936.5	1462.1	0.9443
303.15 K	932	1441.8	0.8792
308.15 K	927.5	1420.7	0.8179
313.15 K	923	1402.6	0.7696
318.15 K	918.5	1383.5	0.7346

C=C(C)C(=O)OC [methyl methacrylate]
[1]
Details	mass density [kg/m3]	speed of sound [m/s]	viscosity [mPa·s]
288.15 K	949.1	1216.8	0.634
293.15 K	943.37	1200.5	0.5903
298.15 K	937.63	1183.6	0.5544
303.15 K	931.89	1168.5	0.5251
308.15 K	926.15	1152.6	0.496
313.15 K	920.41	1135.4	0.4723
318.15 K	914.66	1118.3	0.4499
